According to BigSolDB 2.1:

Compound: CC(=O)O[C@]1(C(C)=O)CC[C@H]2[C@@H]3C=C(Cl)C4=CC(=O)[C@@H]5C[C@@H]5[C@]4(C)[C@H]3CC[C@@]21C
- solubility (mole fraction) (in MTBE, 273.15 K): 0.000675
- solubility (mole fraction) (in MTBE, 278.15 K): 0.000675
- solubility (mole fraction) (in MTBE, 283.15 K): 0.000676
- solubility (mole fraction) (in MTBE, 288.15 K): 0.000676
- solubility (mole fraction) (in MTBE, 293.15 K): 0.000677
- solubility (mole fraction) (in MTBE, 298.15 K): 0.000677
- solubility (mole fraction) (in MTBE, 303.15 K): 0.000678
- solubility (mole fraction) (in MTBE, 308.15 K): 0.000678
- solubility (mole fraction) (in MTBE, 313.15 K): 0.000679
- solubility (mole fraction) (in MTBE, 318.15 K): 0.000679
- solubility (mole fraction) (in methanol, 273.15 K): 0.000229
- solubility (mole fraction) (in methanol, 278.15 K): 0.000229
- solubility (mole fraction) (in methanol, 283.15 K): 0.000229
- solubility (mole fraction) (in methanol, 288.15 K): 0.00023
- solubility (mole fraction) (in methanol, 293.15 K): 0.00023
- solubility (mole fraction) (in methanol, 298.15 K): 0.00023
- solubility (mole fraction) (in methanol, 303.15 K): 0.00023
- solubility (mole fraction) (in methanol, 308.15 K): 0.00023
- solubility (mole fraction) (in methanol, 313.15 K): 0.00023
- solubility (mole fraction) (in methanol, 318.15 K): 0.000231
- solubility (mole fraction) (in water, 273.15 K): 6.57e-07
- solubility (mole fraction) (in water, 278.15 K): 8.66e-07
- solubility (mole fraction) (in water, 283.15 K): 1.16e-06
- solubility (mole fraction) (in water, 288.15 K): 1.56e-06
- solubility (mole fraction) (in water, 293.15 K): 2.09e-06
- solubility (mole fraction) (in water, 298.15 K): 2.79e-06
- solubility (mole fraction) (in water, 303.15 K): 3.67e-06
- solubility (mole fraction) (in water, 308.15 K): 4.88e-06
- solubility (mole fraction) (in water, 313.15 K): 6.36e-06
- solubility (mole fraction) (in water, 318.15 K): 8.21e-06
